{"source": "paper PMC4086246", "about": "(Journal of cellular biochemistry, 2014)", "key": {"ABCG2 [1]": {"target": "T1, ABCG2 (Homo sapiens, UniProt Q9UNQ0, R482T)", "T1 sequence (Q9UNQ0 1-655 R482T)": "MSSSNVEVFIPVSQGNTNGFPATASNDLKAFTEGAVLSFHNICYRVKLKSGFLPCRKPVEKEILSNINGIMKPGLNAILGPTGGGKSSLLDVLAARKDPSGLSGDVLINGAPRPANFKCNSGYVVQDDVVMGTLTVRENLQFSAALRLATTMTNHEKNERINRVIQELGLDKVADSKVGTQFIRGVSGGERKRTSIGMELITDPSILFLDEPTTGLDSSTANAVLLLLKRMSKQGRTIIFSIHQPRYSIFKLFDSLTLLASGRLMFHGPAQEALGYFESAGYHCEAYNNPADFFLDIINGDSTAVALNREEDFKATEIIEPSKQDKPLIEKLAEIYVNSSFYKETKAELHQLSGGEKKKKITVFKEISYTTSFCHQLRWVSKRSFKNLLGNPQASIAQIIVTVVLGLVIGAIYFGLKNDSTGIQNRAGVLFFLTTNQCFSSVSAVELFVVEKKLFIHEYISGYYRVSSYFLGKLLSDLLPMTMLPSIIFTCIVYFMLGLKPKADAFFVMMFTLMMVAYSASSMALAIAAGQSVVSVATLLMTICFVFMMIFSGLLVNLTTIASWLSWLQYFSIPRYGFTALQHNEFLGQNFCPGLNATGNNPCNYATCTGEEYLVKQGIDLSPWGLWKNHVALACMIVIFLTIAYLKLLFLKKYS", "experiment": "[3H]-mitoxantrone accumulation in transfected cells", "assay_type": "cell-based"}, "ABCG2 [2]": {"target": "T2, ABCG2 (Homo sapiens, UniProt Q9UNQ0, R482G)", "T2 sequence (Q9UNQ0 1-655 R482G)": "T1 sequence (Q9UNQ0 1-655 R482T) with T482G", "experiment": "[3H]-mitoxantrone accumulation in transfected cells", "assay_type": "cell-based"}, "ABCG2 [3]": {"target": "T3, ABCG2 (Homo sapiens, UniProt Q9UNQ0)", "T3 sequence (Q9UNQ0 1-655)": "T1 sequence (Q9UNQ0 1-655 R482T) with T482R", "experiment": "inhibition of […]-IAAP photoaffinity labeling in membranes", "assay_type": "binding"}}, "note": "Positions count from the first letter of the chain named.", "data": [{"smiles": "C[C@@H]1COC(Nc2ccc3ncnc(Nc4ccc(OCc5nccs5)c(Cl)c4)c3c2)=N1", "note": "[ARRY-334543]", "values": [{"measurement": "[3H]-mitoxantrone accumulation in transfected cells (0.25 and 1.0 μM)", "setting": "ABCG2 [1]", "result": "significantly increased intracellular levels of [^3H]-MX in the NCI-H460, NCI-H460/MX20, ABCG2-482-R2, ABCG2-482-G2, and ABCG2-482-T7 cells"}, {"measurement": "[3H]-mitoxantrone accumulation in transfected cells (0.25 and 1.0 μM)", "setting": "ABCG2 [2]", "result": "significantly increased intracellular levels of [^3H]-MX in the NCI-H460, NCI-H460/MX20, ABCG2-482-R2, ABCG2-482-G2, and ABCG2-482-T7 cells"}, {"measurement": "IC50", "setting": "ABCG2 [3]", "result": 3.7, "unit": "µM"}]}]}
